# “Also recorded” adds a separate entry of the source.
# What was measured:
# RSV [1] = assay: RSV plaque inhibition assay: peptide pre-incubated with RSV, added to HEp-2 cells; type: cell-based, respiratory syncytial virus (A2 strain); conditions: 3 days; for plaque formation: peptide 5 mg/ml and 10 mg/ml incubated 1 h with RSV, vs PBS controls
# RSV [2] = assay: Cell-to-cell spread / syncytium formation of RSV in HEp-2 monolayers, peptide added to cells; type: cell-based, respiratory syncytial virus
# [3] = tested on: parainfluenza virus 3 (PIV3); assay: Syncytium formation by parainfluenza virus 3 in HEp-2 cells; type: cell-based
# Procedure: RhoA77-95 was also added to HEp-2 cells in conjunction with parainfluenza virus 3 (PIV3) as infectious agent, as well as MT-2 cells, in conjunction with human immunodeficiency virus 1 (HIV-1) as infectious agent. Both viruses are known to cause the formation of syncytia during infection.
# RSV [4] = assay: RSV infection of BALB/c mice, intranasal peptide treatment; type: in vivo
# HIV = assay: MAGI cell assay of HIV entry; type: cell-based; conditions: β-galactosidase activity as endpoint
# RSV [5] = type: cell-based, respiratory syncytial virus; conditions: protein added to RSV prior to infection of HEp-2 cells
# [6] = 500 μg intranasally at the time of RSV challenge, 10^7 pfu RSV
# [7] = 500 μg intranasally on day 4 after RSV infection, vs PBS-treated controls
# [8] = 10 amino acid peptides added to HEp-2 cell medium
substance,measurement,setting,value
"RhoA77-95: 19 amino acid peptide comprising the sequence of amino acids 77-95 of the RhoA protein (TDVILMCFSIDSPDSLENI; UniProt P61586 77-95, looked up, fragment)",antigen-positive cells by immunoperoxidase staining,RSV [1]; RSV-specific antibody,no antigen-positive cells were found
same,plaque formation,RSV [1],completely blocked; also recorded: inhibited; also recorded: inhibit plaque formation
same,syncytia formation,"RSV [2]; peptide 5 mg/ml added 20 or 24 hours post-adsorption, HEp-2, evaluated after three days",inhibited syncytia formation
same,number of virus infected cells,"RSV [2]; peptide 5 mg/ml added 4 hours after RSV adsorption, HEp-2, evaluated after three days",reduced the number of virus infected cells and limited infection to single cells
same,cell-to-cell spread of RSV,"RSV [2]; peptide added after RSV adsorption, HEp-2",inhibited
same,HIV-1 replication (RT and p24 assays),HIV-1,inhibited
same,HIV-1 virus entry into / infection of MT-2 cells,HIV-1,inhibited
same,reverse transcriptase activity in culture supernatants,HIV-1,undetectable
same,syncytium formation by PIV3,[3],inhibited
same,illness,RSV [4]; [6],no discernable illness
same,weight loss,RSV [4]; [6],no discernable illness or weight loss
same,signs of illness,RSV [4]; [7],markedly diminished
same,weight loss,RSV [4]; [7],slight reduction
same,inhibition of RSV in vivo,RSV [4]; administered to mice,inhibited RSV in vivo
same,Day 5 RSV Titer (Log10 pfu/gram lung ± S.D.),"RSV [4]; peptide treatment on day 0 (time of challenge), lung plaque assay",3.7 ± 0.3 Log10 pfu/gram lung
same,Day 5 RSV Titer (Log10 pfu/gram lung ± S.D.),"RSV [4]; peptide treatment on day 4, lung plaque assay",4.7 ± 0.3 Log10 pfu/gram lung
same,decrease of RSV titers in lung,"RSV [4]; treatment at the time of infection, day 5 lungs",over 100 fold
same,reduction of RSV titers in lung,"RSV [4]; treatment on day 4, day 5 lungs",more than 10 fold
same,HIV virus entry into cells,HIV,Inhibition
"RhoA80-89: 10 amino acid peptide comprising amino acid residues 80-89 of the RhoA protein sequence (ILMCFSIDSP; UniProt P61586 80-89, looked up, fragment)",RSV entry into HEp-2 cells,RSV [2]; [8],completely blocked
"whole RhoA protein: whole RhoA protein, 193 amino acid small GTP-binding protein",number and size of plaques,RSV [5],increased
"RhoA77-86: 10 amino acid peptide, RhoA residues 77-86 (TDVILMCFSI; UniProt P61586 77-86, looked up, fragment)",syncytium formation,RSV [2]; [8],did not block
"RhoA67-85: 19 amino acid peptide comprising RhoA amino acids 67-85 (DRLRPLSYPDTDVILMCFS; UniProt P61586 67-85, looked up, fragment)",plaque formation,RSV [1],no inhibition
same,destruction of infected MT-2 cells,HIV-1,completely destroyed by day 14
same,syncytium formation by HIV-1,HIV-1,visible syncytia by day 4
"RhoA83-92: 10 amino acid peptide, RhoA residues 83-92 (CFSIDSPDSL; UniProt P61586 83-92, looked up, fragment)",syncytium formation,RSV [2]; [8],did not block
"RhoA87-105: 19 amino acid peptide comprising RhoA amino acids 87-105 (DSPDSLENIPEKWTPEVKH; UniProt P61586 87-105, looked up, fragment)",plaque formation,RSV [1],no inhibition
same,destruction of infected MT-2 cells,HIV-1,completely destroyed by day 14
same,syncytium formation by HIV-1,HIV-1,visible syncytia by day 4

# Source: US6814968B1, “Inhibition of viral infection and spread with viral and RhoA-derived peptides” (priority 1998, dated 2004)
